In assay [1] the test system is antibody to the alpha subunit of the acetylcholine receptor. The note with it: without added hydrophobic LI or AI residues; cited from earlier work.
In a further assay the test system is anti-whole PSA antibody. The experiment in a line: ELISA activity of PSA peptide segments with anti-whole PSA antibody. The class given is binding. The note with it: average of "wet" and "dry" ELISA methods; rank 1 = most reactive of 14 peptides. The text has this: The amino acid sequence of PSA was divided into fourteen peptide segments. Thirteen of the peptides were 19-mers to 21-mers and one peptide was a 16-mer. […] Two of the peptides lacked both the proline and the hydrophobic-hydrophilic-hydrophobic region descriptors. The combined presence of the two descriptors correlated extremely well with the immunodominance of PSA peptide segments. The six highest scoring PSA peptides in terms of ELISA activity with anti-whole PSA antibody had both characteristics as did the eighth best. Also, the presence of a central proline in a segment lacking the adjacent hydrophobic, hydrophilic, and hydrophobic region characteristic successfully predicted four of five subdominant (moderately ELISA reactive) epitopes, while the absence of both the proline and the hydrophobic-hydrophilic-hydrophobic region characteristics in a peptide segment correctly predicted the two least ELISA reactive peptide segments.
For orientation: In an ELISA, binding on a coated surface is turned into a signal by an enzyme label.

Turning to NPDVK, the “antibody binding of the peptide alone” value in assay [1] was “could not bind antibody alone”. “YSTCSGDSGGPLVCNGVLQG [PSA peptide 186-204]” registered an ELISA activity rank in the assay on anti-whole PSA antibody of 11.

Source of the values: patent publication US6326471A, “Immunogenic peptides of prostate specific antigen” (priority 1998, dated 2001).
